In experiment [1] the target is DarmCSP2 (Dendroctonus armandi, UniProt A0A3S7PYZ0). As to the kind of experiment: Fluorescence competitive binding assay (1-NPN displacement). Particulars: for IC50: 2 μM DarmCSP2 and 2 μM 1-NPN titrated with ligand 2–16 μM, three independent measurements; for Ki: calculated from IC50: KD = [IC50]/(1+[1-NPN]/K1-NPN). The procedure:
A Hitachi F-4500 fluorescence spectrophotometer was used to measure emission fluorescence spectra, in a right-angle configuration with a 1 cm light-path quartz cuvette. The slit width was […] for both excitation and emission. DarmCSPs were dissolved to 2 μM in 50 mM Tris-HCl buffer (pH = 7.4), whereas fluorescent probe N-phenyl-1-naphthylamine (1-NPN) and all semiochemicals were dissolved in methanol with a 1 mM stock solution. […] Excitation of 1-NPN occurred at 337 nm, with the emission spectra recorded from 360 to 500 nm. Corresponding fluorescence intensity values were plotted against free 1-NPN concentration to determine DarmCSP binding constants. Bound 1-NPN concentrations were assessed based on fluorescence intensity, assuming DarmCSPs were 100% active and protein: ligand = 1:1 at saturation. The dissociation-constants curve was linearized with Scatchard plots in Prism 6.0 (GraphPad Software, CA, USA).
Ligand affinity was measured with competitive binding assays. Fourteen compounds were selected based on previous reports (Zhang et al., [2010]; Xie and Lv, [2012]; Chen et al., [2015]; Zhao et al., [2017a],[b]), including 10 host volatiles and four D. armandi pheromones (Table 2). A mixture of 2 μM DarmCSP and 2 μM 1-NPN was titrated with each ligand to final concentrations of 2–16 μM. Corresponding fluorescence intensities were recorded from three independent measurements. Dissociation constants of competitive ligands were calculated according to IC50 values, using the equation: KD = [IC50]/(1+[1-NPN]/K1−NPN), where IC50 is competitive-ligand concentration at half the initial fluorescence of 1-NPN, 1-NPN is the concentration of free 1-NPN, and K1−NPN is the dissociation constant of DarmCSP with 1-NPN.

The test system of experiment [2] is D. armandi antennae. As to the kind of experiment: Electroantennogram (EAG) of antennae after RNAi of DarmCSP2. As to conditions: 48 h post-injection; semiochemical 10 μg/μL in hexane; compared with non-injected and water-injected controls; P < 0.05. On the set-up: species or system Dendroctonus armandi. How it is done: Freshly and synchronously emerged adults were anesthetized on glass petri dishes placed for 30 min in an ice bath, before injection with 0.2 μL dsCSP2 into the hemocoel at the suture under the hindleg. Injections used Hamilton Microliter™ syringes (700 series, RN) with 32G sharp-point needles (Hamilton, Switzerland). Controls were either injected with 0.2 μL DEPC-treated water or not injected. Subjects were then transferred onto wet filter paper placed in clear glass petri dishes for continuous culture (at 20 ± 1°C, 50% humidity). Three males and three females were removed at different time intervals (12, 24, and 48 h) from each treatment group for storage at −80°C until qRT-PCR analysis. Three replicates were performed per treatment group (non-injected, water-injected, dsCSP2-injected). RNA isolation, cDNA synthesis, and qRT-PCR procedure followed methods described above (“RNA isolation and cDNA synthesis” and “Expression patterns of CSP genes across different life stages and tissues”).
Electroantennograms (EAG) were used to detect RNAi efficiency of dsCSP2 and determine DarmCSP2 function in binding semiochemicals. Methods were modified from a previous study (Zhang et al., [2010]). Subject beetles were chosen based on post-RNAi qRT-PCR and anesthetized in an ice bath. Antennae were carefully excised at their base with a scalpel and immediately connected between two electrode holders using Spectra 360 electrode gel.
Semiochemicals were selected based on the results of fluorescence binding assays and dissolved to 10 μg/μL in hexane. Hexane alone acted as a blank control and 1 μg/μL 1-hexanol was used as a standard to normalize all EAG recordings (Zhang et al., [2010]). Semiochemical solutions (20 μL) were loaded onto filter paper strips (5 × 30 mm) and then transferred into a Pasteur pipette. The pipette tip was then inserted into a small hole in the wall of a steel tube (15 mm diameter × 15 cm length). The tube was connected to an air stimulus controller (CS-05b Syntech, the Netherlands) for constant humidified airflow delivery at a rate of 40 mL/min. The open end of the tube was positioned 1 cm before an antenna affixed between two electrode holders.
To stimulate the antenna, semiochemical-containing air was introduced through the pipette into the main air flow at a rate of 20 mL/min for 0.2 s. Each stimulus was separated by at least a 1 min interval to ensure complete antenna recovery. Signals were recorded using an IDAC-2 unit plus amplifier and Syntech EAG 2000 (Syntech, Netherlands). The control and standard were tested before and after every semiochemical solution. Antennae from12 individuals (six males and six females) were tested, with three replicates per antenna. To calculate EAG values, mean responses of the solvent control before and after exposure were subtracted from mean sample responses, then converted to a percentage of the accompanying standard (Zhang et al., [2010]).

The test system of experiment [3] is DarmCSP1. Nature of the experiment: Fluorescence binding assay of 1-NPN with DarmCSP1. On the set-up: species or system Dendroctonus armandi. As to conditions: DarmCSP1, 2 μM protein titrated with 1-NPN. The source says:
(§1) To better characterize DarmCSP function, three antennae-preferential genes (DarmCSP 1–3) were chosen for expression in bacteria. Signal peptides were removed to generate properly folded proteins. PCR products encoding mature proteins were amplified using gene-specific primers (Table S1), cloned into pGEM-T easy vectors (Promega, Madison, USA), then excised and cloned into the bacterial expression vector pET32a(+) (Novagen, Madison, WI), between BamHI and XhoI restriction sites. Successful cloning was verified through PCR and sequencing. Plasmids containing the correct insert were extracted and transformed into E. coli BL21 (DE3) competent cells. Positive clones were incubated at 37°C until absorbance = 0.6 at OD 600, and protein expression was induced with IPTG (isopropyl-β-D-1-thiogalactopyranoside) treatment (28°C for 6 h) to a final concentration of 0.5 mM. […]
(§2) Recombinant proteins were purified with N-termini His tagged from the supernatant using a Ni-NTA-Sefinose Column (Sangon, Shanghai, China), and placed in a buffer (25 mM Tris-HCl, 50 mM NaCl, and 2 mM CaCl2, pH 7.6) for dialysis. To avoid confounding effects in fluorescence binding assays, His-tags were excised using Recombinant Enterokinase with His-tag (rEK) (Sangong, Shanghai, China), and the resultant complex was cleared through a Ni-NTA-Sefinose Column. […]

For experiment [4], the system named is DarmCSP3. Nature of the experiment: Fluorescence binding assay of 1-NPN with DarmCSP3. On the set-up: species or system Dendroctonus armandi. Particulars: DarmCSP3, 2 μM protein titrated with 1-NPN.
Description: as §1, §2

Chain of DarmCSP2 (A0A3S7PYZ0 entry or part of it): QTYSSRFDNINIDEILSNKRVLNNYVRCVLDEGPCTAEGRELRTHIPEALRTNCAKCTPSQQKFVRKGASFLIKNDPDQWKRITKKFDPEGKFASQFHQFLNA

`CC[C@@H]1O[C@]2(C)CCC[C@H]1O2` (racemic) [(±)-exo-Brevicomin]: in experiment [1], the IC50 turned out to be 14.48 ± 0.11 µM and the Ki is 9.34 ± 0.07 µM.
For `CC1=C[C@H](O)[C@@H]2C[C@H]1C2(C)C` (relative stereo) [(-)-trans-Verbenol] the same measures were 4.33 ± 0.1 µM and 2.8 ± 0.07 µM.
`CC1=CCC2C(C1)C2(C)C` (single isomer, unassigned; (+)) [(+)-3-Carene]: in experiment [1], the IC50 amounted to 3.05 ± 0.71 µM and the Ki is 1.97 ± 0.46 µM. In addition, in experiment [2], the “Effect of dsCSP2 injection on antennae EAG activity in response to the semiochemical” value (“Effect of dsCSP2 injection” below) is reported as “significantly reduced”.
For the compound `c1ccc(Nc2cccc3ccccc23)cc1` [1-NPN, N-phenyl-1-naphthylamine], the “Affinity to 1-NPN” value in experiment [3] and in experiment [4] was “no obvious affinity” throughout.
In the case of `C=C1[C@H]2CC[C@H](C2)C1(C)C` [(+)-Camphene], the “Effect of dsCSP2 injection” value in experiment [2] is recorded as “significantly reduced”.
In the case of `C=C(C)[C@H]1CC=C(C)CC1` [(R)-(+)-Limonene], in experiment [1], the IC50 worked out at 6.36 ± 0.25 µM and the Ki was 4.1 ± 0.16 µM.
For `CC1=CC[C@H](C(C)C)C=C1` [(R)-(-)-a-Phellandrene] the same measures were 8.77 ± 0.24 µM and 5.66 ± 0.16 µM.
Turning to `CC1=CCC2CC1C2(C)C` (stereo not drawn) [(–)-α-Pinene], in experiment [1], the IC50 was 2.53 ± 0.11 µM and the Ki is 1.64 ± 0.08 µM.
`C=CC(=C)CCC=C(C)C` [Myrcene]: in experiment [2], the “Effect of dsCSP2 injection” value is given as “significantly reduced”.
With (+)-α-Pinene, in experiment [1], the concentration for half-maximal inhibition (IC50) was 3.6 ± 0.03 µM and the inhibitory constant (Ki) is 2.33 ± 0.02 µM. The “Effect of dsCSP2 injection” value in experiment [2] was “significantly reduced”.
For (+)-β-Pinene the same measures were 5.9 ± 1.31 µM, 3.8 ± 0.84 µM and “significantly reduced”.
Consider (S)-(-)-Limonene, for which, in experiment [1], the concentration for half-maximal inhibition (IC50) amounted to 5.51 ± 0.42 µM and the Ki was 3.41 ± 0.04 µM.
With (±)-Frontalin, in experiment [1], the IC50 is 26.2 ± 1.94 µM and the Ki was 16.9 ± 1.26 µM.
With (–)-β-Pinene, in experiment [1], the IC50 worked out at 5.93 ± 0.17 µM and the Ki was 3.83 ± 0.11 µM. For the same compound, the “Effect of dsCSP2 injection” value in experiment [2] is recorded as “significantly reduced”.

Values taken from article PMC5881420, “Identification, Expression Patterns, and Functional Characterization of Chemosensory Proteins in Dendroctonus armandi (Coleoptera: Curculionidae: Scolytinae)” (Frontiers in Physiology, 2018).
